PubChem BioAssay AID248 (DTP/NCI, 2004)
Inconclusive results and toxic doses are left out. Rule as the data show it: active = T/C of 150% or more; inactive = T/C below 125%.

System: L1210 leukemia ip in BDF1 mice, survival T/C
Assay: NCI In Vivo Anticancer Drug Screen. Data for tumor model L1210 Leukemia (intraperitoneal) in B6D2F1 (BDF1) mice
Settings: endpoint: mean survival time, higher = longer survival
Method in brief: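 Transplanted-tumor mice were given test agent; controls received vehicle only. Survival readings from the two groups were divided (treated over control).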

Measured: T/C

c1ccc(OP(Oc2ccccc2)c2ccccc2)cc1
inactive: dose: 100.0 mg/kg/injection, schedule: Q01DX009 (ip), vehicle: saline 108 % of control | dose: 100.0 mg/kg/injection, schedule: Q04DX003 (ip), vehicle: Klucel (hydroxypropylcellulose) (HPC) 105 % of control | dose: 200.0 mg/kg/injection, schedule: Q01DX009 (ip), vehicle: saline 115 % of control | dose: 200.0 mg/kg/injection, schedule: Q04DX003 (ip), vehicle: Klucel (hydroxypropylcellulose) (HPC) 102 % of control | dose: 400.0 mg/kg/injection, schedule: Q04DX003 (ip), vehicle: Klucel (hydroxypropylcellulose) (HPC) 98 % of control

O=C(Nc1cccc(C(F)(F)F)c1)Oc1ccc(F)cc1Cl
inactive: dose: 25.0 mg/kg/injection, schedule: Q01DX009 (ip), vehicle: gum acacia 100 % of control | dose: 50.0 mg/kg/injection, schedule: Q01DX009 (ip), vehicle: gum acacia 98 % of control | dose: 100.0 mg/kg/injection, schedule: Q01DX009 (ip), vehicle: gum acacia 88 % of control

C=CCN(CCN(CC)CC)C(=O)C(O)(c1ccccc1)c1ccccc1
inactive: dose: 100.0 mg/kg/injection, schedule: Q04DX002 (ip), vehicle: saline with Tween-80 93 % of control | dose: 200.0 mg/kg/injection, schedule: Q04DX002 (ip), vehicle: saline with Tween-80 93 % of control | dose: 400.0 mg/kg/injection, schedule: Q04DX002 (ip), vehicle: saline with Tween-80 95 % of control

CC1=NN(c2cccc([N+](=O)[O-])c2)C(=O)C1
inactive: dose: 100.0 mg/kg/injection, schedule: Q01DX001 (ip), vehicle: saline with Tween-80 96 % of control | dose: 200.0 mg/kg/injection, schedule: Q01DX001 (ip), vehicle: saline with Tween-80 96 % of control | dose: 400.0 mg/kg/injection, schedule: Q01DX001 (ip), vehicle: saline with Tween-80 98 % of control
